In patent publication US20260207626A1, “SYNTHETIC TRITERPENOIDS AND COMPOSITIONS THEREOF IN WEIGHT MANAGEMENT, SKELETAL MUSCLE FUNCTION, AND APPETITE SUPPRESSION” (The Board of Regents of the University of Texas System, priority 2022, published 2026):
“Also recorded” adds a separate entry of the source.

Assays:
L6-GLUT4myc myotubes = experiment: Sulforhodamine B (SRB) cell viability assay; assay type: cell-based, rat; conditions: 500 nM CDDO-EA, 24 hours
Method: Sulforhodamine B (SRB) cell viability assay: L6-GLUT4myc myoblasts (4000 cells/well) were seeded on a 96-well plate and differentiated into myotubes with differentiation medium for 7 days. Myotubes were then treated with doubling concentrations of CDDO-EA for 6 or 24 h. After treatment, myotubes were fixed in 10% cold trichloroacetic acid (TCA) (Sigma Aldrich), for 1 h in 4° C., followed by three washings with water. The plate was then dried, and the cells were dyed with 100 μL/well of 0.057% SRB (Sigma Aldrich) in 1% acetic acid for 30 min in room temperature. The plate was washed with 1% acetic acid five times, dried, and 200 μL/well of 10 mM unbuffered tris-base solution were added to dissolve the bound SRB. The plate was shaken for 1 h and then read on SpectraMax at 560 nm. Results were normalized to values for non-treated cells.

TNF-α = experiment: LPS-induced TNF-α ELISA in RAW 264.7 macrophages; assay type: cell-based, mouse; conditions: RAW264.7, 500 nM CDDO-EA 1 hour then 100 ng/ml LPS 6 hours
Method: Cytokine detection: RAW 264.7 cells were grown on 24-well dishes at 1×10^6 cells/ml, 0.5 ml/well. Cells were pre-treated with CDDO-EA 500 nM for 1 h. After 1 h, cells were treated with 100 ng/ml of LPS16,18 (E. coli O111: B4, Sigma Aldrich) for 6 h, and supernatants were collected and stored at −80° C. until analysis. TNF-α from the culture media of cells was measured and quantified using a Mouse TNF (Mono/Mono) ELISA Set (BD Bioscience) according to the manufacturer's instructions.

GLUT4 = experiment: GLUT4myc translocation by immunofluorescence in L6-GLUT4myc myotubes; assay type: cell-based, rat
Method: Immunofluorescence and confocal microscopy were employed to visualize the localization of c-myc epitope-tagged GLUT4 in L6-GLUT4myc myotubes treated with CDDO-EA for 1 h. L6-GLUT4myc myotubes were also treated with insulin alone for 15 min as a positive control.
To examine the properties of CDDO-EA in regulating glucose metabolism in the skeletal muscle, the present study examined whether CDDO-EA induces translocation of GLUT4 to the cell surface (FIG. 16A). Immunofluorescence and confocal microscopy were used to visualize the localization of c-myc epitope-tagged GLUT4 in L6-GLUT4myc cells.
Immunofluorescence microscopy: L6-GLUT4myc myoblasts (4×10^4 cells/ml, 0.2 ml/well) were plated onto Nunc Lab-TekII 8-chamber slides (Thermo Fisher Scientific) and differentiated for 7 days. Myotubes were pre-treated with CDDO-EA 500 nM for 1 h followed by LPS 100 ng/ml (E. coli O111: B4, Sigma Aldrich) treatment for 1 h. After treatment, myotubes were fixed, permeabilized, and stained with anti-NF-κB p65 primary antibody (cat #sc-372, 1:100, Santa Cruz Biotechnology) and a goat anti-rabbit secondary antibody conjugated with Alexa Fluor® 488 (cat #A32731, 1:500, Invitrogen) as previously described. For GLUT4myc cell membrane staining, myotubes were pre-treated with CDDO-EA 500 nM for 1 h followed by LPS 100 ng/ml (E. coli 0111: B4, Sigma Aldrich) treatment for 1 h. Insulin 100 nM (cat #19278, Sigma Aldrich) treatment was for 15 min. After CDDO-EA, LPS, and insulin treatment, myotubes were fixed without permeabilization and stained with anti-c-myc primary antibody (cat #C3956, 1:100, Sigma Aldrich) and a goat anti-rabbit secondary antibody conjugated with Alexa Fluor® 488 (cat #A32731, 1:500, Invitrogen) as previously described.

[1] = Energy expenditure (Promethion Metabolic Analyzer) in mice fed HFD with or without CDDO-EA, LFD or HFD pair-fed; assay type: in vivo, C57BL/6J mice; conditions: HFD + CDDO-EA (0.04%), days 3-9
Method: FIG. 22A and FIG. 22B. […] FIG. 22A. EE was measured 289 times in a 24-hour cycle at each day from 3-9 days of the experimental feeding. FIG. 22B. Average EE for days 3-9 of experimental feeding. C57BL/6J mice were fed a HFD with or without incorporation of CDDO-EA (diet containing 0.04% CDDO-EA) or LFD or HFD pair-fed for 6 weeks (n=5).
C57BL/6J mice (6-8 weeks old, male, strain #000664, The Jackson Laboratory) were divided into four (4) groups (i)-(iv)): (i) ad libitum Low fat caloric content (LFD-10% of total calories from fat caloric content, #TD.08806, Envigo), (ii) ad libitum HFD (60% of total calories from fat caloric content, #TD.06414, Envigo), (iii) HFD+CDDO-EA (diet containing 0.04% CDDO-EA), and (iv) HFD pair-fed to food intake of mice fed HFD+CDDO-EA. The study was for 6 weeks (42 days) (performed at Vanderbilt Metabolic Mouse Phenotyping Center (VMMPC)). Mice were singly housed in a Promethion Metabolic Analyzer and were monitored continuously for 7 days to assess feeding and EE.

[2] = OGTT and fasting glucose at week 6 with pair-fed group; assay type: in vivo, C57BL/6J mice
Method: FIG. 25—OGTT Area Under the Curve. Oral GTT performed at week 6 of experimental feeding, and mice were dosed on lean mass (2 g/kg lean mass). C57BL/6J mice were fed a HFD with or without incorporation of CDDO-EA (diet containing 0.04% CDDO-EA) or LFD or HFD pair-fed for 6 weeks (n=5). Data are represented as mean±SEM (One-way ANOVA).
Fasting glucose levels were measured at day 42 of experimental feeding. C57BL/6J mice were fed a HFD with or without incorporation of CDDO-EA (diet containing 0.04% CDDO-EA) or a LFD or were HFD pair-fed for 6 weeks (n=5). Data are represented as mean±SEM (One-way ANOVA).
To determine the answer to this question, a pair-fed/weight-matched group was included in the study. OGTT was performed at end of the 6-week study.

MCP-1 = experiment: RT-PCR of PA-induced MCP-1 gene expression in L6-GLUT4myc myotubes; assay type: cell-based, rat; conditions: CDDO-EA 500 nM 1 h then PA 400 μM 6 h
Method: L6-GLUT4myc myotubes were pretreated with CDDO-EA (500 nM, 1 h) and treated PA (400 μM, 6 h). TNF-α and MCP-1 gene expression were measured by RT-PCR. Data are represented as +SEM *P<0.05 vs. control, ^#P<0.05 vs. control. * P<0.05 vs. LPS, $P<0.05 vs. PA. (One-Way ANOVA).

**Q.** With `CCNC(=O)[C@]12CCC(C)(C)C[C@H]1C1C(=O)C=C3[C@@]4(C)C=C(C#N)C(=O)C(C)(C)[C@@H]4CC[C@@]3(C)[C@]1(C)CC2` (stereo partly drawn) [CDDO-EA, (4aS,6aR,6bS,8aR,12aS,14bS)-11-cyano-N-ethyl-2,2,6a,6b,9,9,12a-heptamethyl-10,14-dioxo-1,3,4,5,6,6a,6b, 7,8,8a,9,10,12a, 14,14a, 14b-hexadecahydropicene-4a (2H)-carboxamide] as the compound, how does the cell viability (L6-GLUT4myc myotubes) read?
**A.** 62%

**Q.** And the “LPS-induced TNF-α production” value (TNF-α)?
**A.** substantially blocked; also recorded: inhibits LPS-induced cytokines secretion in macrophages

**Q.** What about the “CDDO-EA-stimulated GLUT4myc translocation in presence of LPS” value (GLUT4; 500 nM CDDO-EA 1 h then 100 ng/ml LPS 1 h) of the same compound?
**A.** did not inhibit CDDO-EA-stimulated GLUT4myc translocation; also recorded: did not prevent CDDO-EA-stimulated GLUT4myc translocation to the cell surface

**Q.** And the “GLUT4myc translocation to the cell surface” value (GLUT4; CDDO-EA 500 nM 1 h, insulin 100 nM 15 min)?
**A.** induced GLUT4myc translocation to the cell surface; also recorded: activates GLUT4 translocation to cell membrane and p38 phosphorylation

**Q.** What about the “energy expenditure (EE)” value [1] of the same compound?
**A.** does not affect EE; also recorded: does not affect energy expenditure

**Q.** What about the fasting glucose ([2]; day 42, HFD+CDDO-EA compared to HFD ad lib) of the same compound?
**A.** significant lowered fasting glucose levels; also recorded: lowers fasting glucose levels

**Q.** What about the fasting glucose ([2]; day 42, HFD+CDDO-EA compared to HFD pair-fed) of the same compound?
**A.** close to significant effect on fasting glucose

**Q.** What about the “glucose tolerance (OGTT Area Under the Curve)” value ([2]; week 6, HFD+CDDO-EA compared to HFD ad lib) of the same compound?
**A.** significant improvement in glucose tolerance

**Q.** And the “glucose tolerance (OGTT Area Under the Curve)” value ([2]; week 6, HFD+CDDO-EA compared to HFD pair-fed)?
**A.** slight improvement in glucose tolerance

**Q.** What about the “PA-induced MCP-1 gene expression” value (MCP-1) of the same compound?
**A.** inhibits PA-induced NF-κB activation and MCP-1 and TNF-α gene expression; also recorded: blocks TNF-α and MCP-1 gene expression
